# Reference: patent US7880007B2, “Bicyclic substituted phenyl piperidine modulators of muscarinic receptors” (Vertex Pharmaceuticals Incorporated, priority 2004, dated 2011)
# Key:
# Format in all cases: cell-based
# [1] = molecular target: T1, M3 muscarinic receptor (Homo sapiens, UniProt P20309); experiment: Functional mobilization of intracellular calcium (FLIPR), M3-CHO cells; settings: for M3 Activity: M3-CHO cells, calcium mobilization (FLIPR)
# T1 construct: expressed in transfected cells; host or cells: CHO (M3-CHO)
# T1 sequence (P20309 whole entry): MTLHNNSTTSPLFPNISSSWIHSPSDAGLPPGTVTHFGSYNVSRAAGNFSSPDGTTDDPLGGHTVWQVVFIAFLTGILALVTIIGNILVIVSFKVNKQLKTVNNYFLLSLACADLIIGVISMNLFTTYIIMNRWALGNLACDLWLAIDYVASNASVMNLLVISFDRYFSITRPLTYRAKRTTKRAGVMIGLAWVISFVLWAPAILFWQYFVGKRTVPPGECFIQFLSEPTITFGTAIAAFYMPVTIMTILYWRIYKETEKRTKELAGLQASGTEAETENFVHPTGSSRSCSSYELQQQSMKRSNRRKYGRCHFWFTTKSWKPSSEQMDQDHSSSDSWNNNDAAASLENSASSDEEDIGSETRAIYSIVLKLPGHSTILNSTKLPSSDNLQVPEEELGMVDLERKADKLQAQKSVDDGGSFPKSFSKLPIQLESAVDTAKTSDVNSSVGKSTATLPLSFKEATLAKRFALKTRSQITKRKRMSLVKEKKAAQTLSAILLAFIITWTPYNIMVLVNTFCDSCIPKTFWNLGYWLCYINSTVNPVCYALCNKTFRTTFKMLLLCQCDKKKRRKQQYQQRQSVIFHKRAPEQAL
# Experimental: Functional Mobilization of Intracellular Calcium to Determine Muscarinic Receptor Activity:
# CHO cells expressing muscarinic receptors (M1 to M5) are grown as monolayers in tissue culture flasks at 37° C. in a humidified atmosphere containing 5% CO2 and passaged every 3-5 days. The growth media is Dulbecco's modified eagles medium (DMEM, Gibco Cat #12430-054), containing 25 mM Hepes and supplemented with Fetal Bovine Serum (Hyclone, cat #SH30071.03), 0.1 mM of MEM non-essential amino acids (GIBCO, Cat #11140-050), 1 mM MEM Sodium Pyruvate (GIBCO Cat #11360-070) and 100 units/ml of Penicillin G and 100 μg/ml of Streptomycin (GIBCO Cat #15140-122). The recombinant muscarinic receptor cell lines are grown under antibiotic pressure with media containing 25 μg/ml zeocin and 500 μg/ml G418 (M1-CHO), 4 μg/ml puromycin, 50 μg/ml zeocin and 2.5 μg/ml blasticidin (M2 and M4-CHO) or 50 μg/ml zeocin and 4 μg/ml puromycin (M3 and M5-CHO).
# Cells are harvested at 80-90% confluence using Versene (GIBCO Cat #15040-066), collected by centrifugation and seeded 18-24 hrs prior to running the calcium assay at a density of 5,000-10,000 cells/well in […], clear-bottomed 384-well plates (BD Biocoat, poly-D-lysine, Cat #356663). The day of the experiment, the cells are washed with a plate washer (Bioteck Instruments, ELX 405) using bath 1 buffer (140-mM NaCl, 4.5-mM KCl, 2-mM CaCl2, 1-mM MgCl2, 10-mM Hepes-Na, 10-mM Glucose, pH 7.4, with NaOH) containing 1 mM Probenecid. Next, the calcium dye Fluo-3 (25 μl/well of Fluo-3 AM at 4 μM, Molecular Probes F-1241, in Bath 1 buffer containing 1 mM Probenecid) is added to the 25 μl of Bath 1 remaining in each well after the plate wash and the dye is loaded at 37° C. in the tissue culture incubator for 60-90 min. The fluorescent dye is removed using the plate washer with Bath 1 containing 1 mM Probenecid, leaving 25 μl/well of this solution after the wash. Alternatively, cells can be loaded with the calcium indicator from Molecular Devices (Calcium 3 Assay Reagents, Cat #R7181) adding 5 μl of a 5× solution dye in Bath 1 containing 1 mM Probenecid (10 ml per dye flask cat #R7182 to generate a solution 20×) to 20 μl of the same buffer. After loading for 60 min, the experiment can be run without having to remove the dye.
# Compounds are prepared at a 2× fold concentration in a 96-well plate (round bottom, Costar Corning cat #3656), by reconstituting the pre-spotted compounds in bath 1 containing 1 mM probenecid. The final concentration DMSO is 0.5%, and the amount of DMSO is normalized across the assay plate. To determine an agonist action of the compounds on muscarinic receptors, the reconstituted compounds are added (25 μl compound/well) to the cell assay plate (containing 25 μl/well) using the multi-channel robotic system of the FLIPR 3 Instrument (Molecular Devices, Sunnyvale, Calif.). To determine a functional inhibitory action of the compounds on muscarinic receptors, the reconstituted compounds are added (25 μl compound/well) to the assay plate and pre-incubated for 15 min prior to adding 25 μl of Carbachol at 3× the EC80 for each muscarinic subtype. Alternatively, the compounds can be co-applied simultaneously with the agonist. In both assay modes, the fluorescence is recorded for 60 sec (excitation wavelength is […] and emission wavelength 540 nm) using the FLIPR 3 instrument.
# The potency, efficacy and selectivity of the muscarinic compounds were evaluated by screening the compound activity across the whole family (M1 to M5 cells). Compounds were also screened for activity on other proteins such as other GPCRs and ion channels to determine selectivity on M4 receptors.
# Examples of activities and efficacies of the muscarinic compounds of formulae (I, Ia, Ib, and II) on modulating M1, M2, M3 and M4 receptors are shown below in Table 3. […]
# [2] = molecular target: T2, M1 muscarinic receptor (Homo sapiens, UniProt P11229); experiment: Functional mobilization of intracellular calcium (FLIPR), M1-CHO cells; settings: for M1 Activity: M1-CHO cells, calcium mobilization (FLIPR)
# T2 construct: expressed in transfected cells; host or cells: CHO (M1-CHO)
# T2 sequence (P11229 1-460): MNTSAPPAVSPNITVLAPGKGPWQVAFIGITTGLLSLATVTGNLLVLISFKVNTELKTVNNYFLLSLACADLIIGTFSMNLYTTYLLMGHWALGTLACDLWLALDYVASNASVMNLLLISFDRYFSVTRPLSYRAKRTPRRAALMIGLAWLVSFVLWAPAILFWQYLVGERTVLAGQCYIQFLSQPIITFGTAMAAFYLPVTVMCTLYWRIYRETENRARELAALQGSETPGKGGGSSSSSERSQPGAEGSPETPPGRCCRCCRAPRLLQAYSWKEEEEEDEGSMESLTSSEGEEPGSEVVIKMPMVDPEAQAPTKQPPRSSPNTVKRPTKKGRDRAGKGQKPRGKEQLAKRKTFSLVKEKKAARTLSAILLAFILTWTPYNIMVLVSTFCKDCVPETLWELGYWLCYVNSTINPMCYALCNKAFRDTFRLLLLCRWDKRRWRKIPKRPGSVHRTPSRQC
# Summary of the method: (§1)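 FLIPR fluorescence (ex 488, em 540 nm) recorded 60 sec after compound addition to dye-loaded CHO cells. Agonist mode: compound alone. Antagonist mode: 15 min compound pre-incubation, then carbachol at EC80, or co-application. Efficacy expressed as % of maximal carbachol response.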
# [3] = molecular target: T3, M2 muscarinic receptor (Homo sapiens, UniProt P08172); experiment: Functional mobilization of intracellular calcium (FLIPR), M2-CHO cells; settings: for M2 Activity: M2-CHO cells, calcium mobilization (FLIPR)
# T3 construct: expressed in transfected cells; host or cells: CHO (M2-CHO)
# T3 sequence (P08172 1-466): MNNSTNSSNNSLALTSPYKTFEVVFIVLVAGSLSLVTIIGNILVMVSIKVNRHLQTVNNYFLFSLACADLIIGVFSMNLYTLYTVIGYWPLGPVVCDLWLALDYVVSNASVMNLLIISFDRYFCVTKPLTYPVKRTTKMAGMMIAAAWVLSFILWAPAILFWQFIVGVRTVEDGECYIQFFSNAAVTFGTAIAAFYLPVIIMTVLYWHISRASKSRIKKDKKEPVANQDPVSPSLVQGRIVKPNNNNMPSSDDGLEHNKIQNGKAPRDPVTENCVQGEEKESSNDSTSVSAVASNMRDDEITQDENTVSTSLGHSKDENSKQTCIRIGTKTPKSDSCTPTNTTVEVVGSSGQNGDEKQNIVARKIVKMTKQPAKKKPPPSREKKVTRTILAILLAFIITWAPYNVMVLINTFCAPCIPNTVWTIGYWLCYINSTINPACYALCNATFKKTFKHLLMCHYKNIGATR
# Summary of the method: as §1
# [4] = molecular target: T4, M4 muscarinic receptor (Homo sapiens, UniProt P08173); experiment: Functional mobilization of intracellular calcium (FLIPR), M4-CHO cells; settings: for M4 Activity: M4-CHO cells, calcium mobilization (FLIPR)
# T4 construct: expressed in transfected cells; host or cells: CHO (M4-CHO)
# T4 sequence (P08173 1-479): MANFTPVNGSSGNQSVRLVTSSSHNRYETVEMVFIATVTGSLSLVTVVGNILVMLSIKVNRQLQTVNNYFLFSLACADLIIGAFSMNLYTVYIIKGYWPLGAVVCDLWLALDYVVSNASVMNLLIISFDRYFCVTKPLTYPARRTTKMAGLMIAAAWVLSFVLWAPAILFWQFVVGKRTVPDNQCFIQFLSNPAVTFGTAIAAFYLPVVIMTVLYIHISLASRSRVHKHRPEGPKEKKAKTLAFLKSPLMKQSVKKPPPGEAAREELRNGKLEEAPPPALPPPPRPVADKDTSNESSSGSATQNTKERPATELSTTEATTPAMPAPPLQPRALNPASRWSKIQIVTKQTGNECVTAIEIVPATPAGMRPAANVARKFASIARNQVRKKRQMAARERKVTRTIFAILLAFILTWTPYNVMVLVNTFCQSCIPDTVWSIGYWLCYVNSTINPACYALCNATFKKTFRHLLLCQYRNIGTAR
# Summary of the method: as §1
# [5] = 100% efficacy = maximum response obtained with the Carbachol control
# [6] = 100% efficacy is the maximum response obtained with the Carbachol control
"Emax [1, 5] [%]","Emax [2, 5] [%]","Emax [3, 5] [%]","Emax [4, 5] [%]","Emax [1, 6] [%]","Emax [2, 6] [%]","Emax [3, 6] [%]","Emax [4, 6] [%]",Structure (SMILES),M3 Activity [1],M1 Activity [2],M2 Activity [3],M4 Activity [4]
< 25,25 to 100,25 to 100,25 to 100,,,,,COc1ccc(F)cc1C1CCN(C2CC3CCC2C3)CC1 (stereo not drawn) [Compound 371],+ (activity was measured to be greater than 5.0 μM),++ (activity was measured to be from 1.0 μM to 5.0 μM),++ (activity was measured to be from 1.0 μM to 5.0 μM),+++ (activity was measured to be less than 1.0 μM)
< 25,< 25,< 25,25 to 100,,,,,COc1ccc(-c2ccc(C(=O)Nc3nccs3)cc2)cc1C1CCN(C2CCCCC2)CC1 [Compound 323],+ (activity was measured to be greater than 5.0 μM),+ (activity was measured to be greater than 5.0 μM),+ (activity was measured to be greater than 5.0 μM),++ (activity was measured to be from 1.0 μM to 5.0 μM)
25 to 100,25 to 100,25 to 100,25 to 100,,,,,CCOC(=O)N1CCC(CN2CCC(c3ccccc3C)CC2)CC1 [Compound 306],+++ (activity was measured to be less than 1.0 μM),+++ (activity was measured to be less than 1.0 μM),+++ (activity was measured to be less than 1.0 μM),+++ (activity was measured to be less than 1.0 μM)
< 25,25 to 100,25 to 100,25 to 100,,,,,"COc1ccc(Cl)cc1C1CCN(C2(C)CCCCC2)CC1 [Compound 300, 4-(5-chloro-2-methoxyphenyl)-1-(1-methylcyclo-hexyl)piperidine]",+ (activity was measured to be greater than 5.0 μM),++ (activity was measured to be from 1.0 μM to 5.0 μM),++ (activity was measured to be from 1.0 μM to 5.0 μM),+++ (activity was measured to be less than 1.0 μM)
< 25,< 25,< 25,< 25,,,,,COc1ccccc1C1CCN(C2CCN(C(=O)c3ccccc3)CC2)CC1 [Compound 71],+ (activity was measured to be greater than 5.0 μM),+ (activity was measured to be greater than 5.0 μM),+ (activity was measured to be greater than 5.0 μM),+ (activity was measured to be greater than 5.0 μM)
25 to 100,25 to 100,25 to 100,25 to 100,,,,,"COc1ccc(C(C)(C)C)cc1C1CCN([C@@H]2C[C@@H]3CC[C@H]2C3)CC1 [Compound 325, 1-((1S,2R,4R)-bicyclo[2.2.1]heptan-2-yl)-4-(5-tert-butyl-2-methoxy-phenyl) piperidine]",+ (activity was measured to be greater than 5.0 μM),++ (activity was measured to be from 1.0 μM to 5.0 μM),+ (activity was measured to be greater than 5.0 μM),++ (activity was measured to be from 1.0 μM to 5.0 μM)
< 25,25 to 100,< 25,25 to 100,,,,,COc1ccccc1C1CCN(CC2CCCC2)CC1 [Compound 232],+ (activity was measured to be greater than 5.0 μM),+ (activity was measured to be greater than 5.0 μM),+ (activity was measured to be greater than 5.0 μM),++ (activity was measured to be from 1.0 μM to 5.0 μM)
< 25,25 to 100,< 25,25 to 100,,,,,COc1ccc(Cl)cc1C1CCN(C2CCC(F)(F)CC2)CC1 [Compound 115],+ (activity was measured to be greater than 5.0 μM),+ (activity was measured to be greater than 5.0 μM),+ (activity was measured to be greater than 5.0 μM),++ (activity was measured to be from 1.0 μM to 5.0 μM)
,,,,25 to 100,25 to 100,25 to 100,25 to 100,CCOC(=O)N1CCC(N2CCC(c3cc(Cl)ccc3OC)CC2)CC1 [Compound 392],+++ (activity was measured to be less than 1.0 μM),+++ (activity was measured to be less than 1.0 μM),+++ (activity was measured to be less than 1.0 μM),+++ (activity was measured to be less than 1.0 μM)
